Laboratory results reported in BindingDB's records for doi:10.1021/acs.jmedchem.8b01467 (Janssen Research & Development, 2018).

Biological target: Cannabinoid receptor 2 (Homo sapiens, UniProt P34972)
Test: Inverse agonist activity at human CB2 receptor expressed in HEK293 cells assessed as […] after 30 mins by HTRF assay

Sequence of Cannabinoid receptor 2 (P34972 whole entry): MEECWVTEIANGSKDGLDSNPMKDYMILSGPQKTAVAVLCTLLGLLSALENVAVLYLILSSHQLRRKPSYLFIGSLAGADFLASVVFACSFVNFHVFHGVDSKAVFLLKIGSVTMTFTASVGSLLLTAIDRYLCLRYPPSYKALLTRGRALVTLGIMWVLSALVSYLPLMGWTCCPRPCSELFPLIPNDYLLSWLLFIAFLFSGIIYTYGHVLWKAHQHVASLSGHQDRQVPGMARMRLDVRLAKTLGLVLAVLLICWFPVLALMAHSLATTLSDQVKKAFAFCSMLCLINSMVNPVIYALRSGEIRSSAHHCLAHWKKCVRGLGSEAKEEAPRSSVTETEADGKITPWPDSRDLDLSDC

SMILES	EC50 [µM]
O=C(O)c1ccc(C(=O)N2CCC(Nc3cc(=O)[nH]c4ccc(C(c5ccc(Cl)cc5)c5ccc(Cl)cc5)cc34)CC2)cc1 [US9266835, 116]	> 10
O=C(O)c1ccc(CN2CCC(Nc3cc(=O)[nH]c4ccc(C(c5ccc(Cl)cc5)c5ccc(Cl)cc5)cc34)CC2)cc1 [US9266835, 127]	> 10
Cn1c(=O)cc(NC2CCN(S(=O)(=O)C(F)(F)F)CC2)c2cc(C(c3ccc(Cl)cc3)c3ccc(Cl)cc3)ccc21 [US9266835, 49]	> 10
O=c1cc(NC2CCN(S(=O)(=O)c3ccccc3)CC2)c2cc(C(c3ccc(Cl)cc3)c3ccc(Cl)cc3)ccc2[nH]1 [US9266835, 80]	> 10

Further lines, results first:

EC50 [µM]	SMILES
> 10	COCCOc1cc(NC2CCN(S(=O)(=O)C(F)(F)F)CC2)c2cc(C(c3ccc(Cl)cc3)c3ccc(Cl)cc3)ccc2n1 [US9266835, 530]
> 10	O=S(=O)(N1CCC(Nc2ccnc3c(O)cc(C(c4ccc(Cl)cc4)c4ccc(Cl)cc4)cc23)CC1)C(F)(F)F [US9266835, 541]
> 10	O=C(O)c1cccc(CN2CCC(Nc3cc(=O)[nH]c4ccc(C(c5ccc(Cl)cc5)c5ccc(Cl)cc5)cc34)CC2)c1 [US9266835, 129]
> 10	NCCCCOc1cc(C(c2ccc(Cl)cc2)c2ccc(Cl)cc2)cc2c(NC3CCN(S(=O)(=O)C(F)(F)F)CC3)ccnc12 [US9266835, 542]
